Measured values taken from patent publication US20240270748A1 (Merck Patent GmbH, priority 2021, published 2024).

Key:
SW620 Yap KO cells = assay: Viability assay in SW620 Yap KO (Yap independent) cells, CyQuant; format: cell-based; conditions: Homo sapiens, SW-620, 96 h
Method: (§1) Viability Assay in NCI-H226 (Yap-Dependent) and SW620 Yap KO (Yap Independent) Cells
(§2) The ability of YAP-TEAD inhibitors to inhibit tumor cell growth was evaluated using two different cell lines: NCI-H226, which is a YAP dependent cell line, and SW620 cells, where YAP and TAZ were knocked out using CRISPR to generate a YAP independent cell line.
(§3) For the assay, cells were treated in duplicates with the test compounds in a 10-point dose, 1:3 dilution steps, with the top concentration starting at 30 μM (final concentration in assay). After a 96 hour incubation at 37° C., 95% rH, and 5% CO2, a cell-permeant DNA-binding dye that stains only healthy cells (CyQUANT®, Promega) was added to the cells, allowing the quantification of cell viability.
(§4) Cell Media: The NCI-H226 cells were cultured in the following media: RPMI 1640, +10% FBS, +1× GlutaMAX, +10 mM HEPES, +0.5% Pen/Strep. The SW620-KO cells were cultured in the following media: DMEM/F-12, +10% FBS, +1× GlutaMAX, +10 mM HEPES, +0.5% Pen/Strep.
(§5) Reagents: The reagents used are listed below:
(§6) Cell culture: The cells were examined using an inverted microscope to check for health, cell density, etc. To dissociate adherent cells, the monolayer of cells was washed once with pre-warmed PBS. After removing the PBS, 3 ml pre-warmed Accutase was added to a F75 flask, dispersed evenly and the flask was allowed to sit in incubator for ˜4-5 minutes.
(§7) When a single cell suspension was obtained, 7 ml of prewarmed growth media was added and resuspended with the cells. The cell suspension was transferred to a sterile 15 ml conical centrifuge tube, and spun for 5 min at 300×g, RT. The supernatant was discarded and the pellet was resuspended in 10 ml of pre-warmed growth media.
(§8) The total cell count was determined, and 20 μl of the desired cell number was added to each well of a 384 well plate using a Multidrop Combi. The plates were then incubated for 24 hours at 37° C., 95% rH, and 5% CO2.
(§9) Compound treatment: 24 hours after seeding, the cells were treated with compounds.
(§10) A 1:333 dilution of compounds, diluted in DMSO, was made to get a final concentration of 0.3% DMSO per well. To transfer the compounds to the assay plate, […] was shot from Labcyte low dead volume plates to the cell plates containing 20 μl media/well with the ECHO 555 liquid handling system.
(§11) After treatment, the cells were fed with 20 μl fresh pre-warmed assay media using a Multidrop combi.
(§12) The assay plates were then incubated for 96 h at 37° C., 95% rH, and 5% CO2.
(§13) 96 h after treatment 30 μl of CyQuant® reagent was added to the assay plates using a Multidrop combi in the dark. The plates were then incubated for 1 hour at 37° C., 95% rH and 5% CO2. Thereafter, the assay plates were removed from the incubator and allowed to equilibrate to RT for 30 min in the dark without lid. Finally, they were measured using an EnVision microplate reader with a FITC bottom read program.

YAP-TEAD interaction = assay: SK-HEP-1 reporter assay (8xTEAD responsive elements driving NanoLuc luciferase); format: cell-based
In short: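 Reporter read-out: NanoLuc luminescence from 8×TEAD elements stably integrated in SK-HEP-1 cells, after 24 h compound exposure at 37° C. Ten concentrations tested in duplicate, top 30 μM final, 0.3% DMSO; IC50 from curve.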

NCI-H226 cells = assay: Viability assay in NCI-H226 (Yap-dependent) cells, CyQuant; format: cell-based, human; conditions: class symbols
Method: as §1, §2, §3, §4, §5, §6, §7, §8, §9, §10, §11, §12, §13

[1] = n.d. = value not detectable below threshold given in parentheses
[2] = Homo sapiens, SK-HEP1, SK-HEP-1 reporter assay, class symbols
[3] = Homo sapiens, SK-HEP1, SK-HEP-1 reporter assay, n.d. = value not detectable below threshold given in parentheses
[4] = SK-HEP-1 reporter assay, class symbols
[5] = n.d. = value not detectable below threshold given in parentheses, ND = not determinable within the entire range

| Structure (SMILES) | IC50 (SW620 Yap KO cells; [1]) [nM] | IC50 (YAP-TEAD interaction; [2]) [nM] | IC50 (NCI-H226 cells; Homo sapiens, NCI-H226, 96 h) [nM] | IC50 (YAP-TEAD interaction; [3]) [nM] | further results |
| --- | --- | --- | --- | --- | --- |
| Cn1nc2c3cc(C(=O)N=[S@@](C)(=O)CCO)ccc3n(-c3ccc(C(F)(F)F)cc3)c2n1 (single isomer, unassigned) [Example C191] | > 30000 | 10 to 100 | 1 to 100 | – | – |
| Cn1nc2c3cc(C(=O)N=S(C)(=O)CCO)ccc3n(-c3ccc(C(F)(F)F)cc3)c2n1 (single isomer, unassigned) [Example C192] | > 30000 | 10 to 100 | 1 to 100 | – | – |
| Cn1cc2c3cc(C(=O)N=[S@@](=O)(CCCO)Cc4cccnc4)ccc3n(-c3ccc(C(F)(F)F)cc3)c2n1 (single isomer, unassigned) [Example C199] | > 3000 | – | 100 to 1000 | > 95 | – |
| Cn1nc2c3cc(C(=O)N=[S@@](=O)(CCCO)Cc4cccnc4)ccc3n(-c3ccc(C(F)(F)F)cc3)c2n1 (single isomer, unassigned) [Example C200] | > 3000 | – | 100 to 1000 | > 9500 | – |
| Cn1cc2c3cc(C(=O)N=[S@](=O)(CCCO)Cc4cccnc4)ccc3n(-c3ccc(C(F)(F)F)cc3)c2n1 (single isomer, unassigned) [Example C201] | – | – | 100 to 1000 | > 300 | IC50 (SW620 Yap KO cells; class symbols): 1000 to 10000 nM |
| Cn1nc2c3cc(C(=O)N=[S@](=O)(CCCO)Cc4cccnc4)ccc3n(-c3ccc(C(F)(F)F)cc3)c2n1 (single isomer, unassigned) [Example C202] | > 3000 | – | 100 to 1000 | > 300 | – |
| Cn1cc2c3cc(C(=O)N=[S@@](=O)(CCCO)Cc4ccccn4)ccc3n(-c3ccc(C(F)(F)F)cc3)c2n1 (single isomer, unassigned) [Example C210] | > 3000 | – | 100 to 1000 | > 95 | – |
| Cn1cc2c3cc(C(=O)N=[S@](=O)(CCCO)Cc4ccccn4)ccc3n(-c3ccc(C(F)(F)F)cc3)c2n1 (single isomer, unassigned) [Example C213] | > 3000 | – | – | – | IC50 (YAP-TEAD interaction; SK-HEP-1 reporter assay, n.d. = value not detectable below threshold given in parentheses): > 300 nM; IC50 (NCI-H226 cells; 96 h): 1 to 100 nM |
| C[C@H](NC(=O)c1ccc2c(c1)c1cn(C)nc1n2-c1ccc(C(F)(F)F)cc1)c1cccc(N)n1 (single isomer, unassigned) [Example C214] | > 3000 | 10 to 100 | 1 to 100 | – | – |
| Cn1cc2c3cc(C(=O)N=[S@@](=O)(CCCO)Cc4ccncc4)ccc3n(-c3ccc(C(F)(F)F)cc3)c2n1 (single isomer, unassigned) [Example C231] | > 3000 | – | 100 to 1000 | > 300 | – |
| Cn1cc2c3cc(C(=O)N=[S@](=O)(CCCO)Cc4ccncc4)ccc3n(-c3ccc(C(F)(F)F)cc3)c2n1 (single isomer, unassigned) [Example C236] | > 3000 | – | 1 to 100 | > 95 | – |
| Cn1nc2c3cc(C(=O)N=[S@@](=O)(CCCO)Cc4ccccn4)ccc3n(-c3ccc(C(F)(F)F)cc3)c2n1 (single isomer, unassigned) [Example C237] | > 3000 | – | 1 to 100 | > 3000 | – |
| Cn1cc2c3cc(C(=O)N[C@@H](CCO)c4ccccn4)ccc3n(-c3ccc(C(F)(F)F)cc3)c2n1 (single isomer, unassigned) [Example C240] | > 3000 | 10 to 100 | 1 to 100 | – | – |
| Cn1nc2c3cc(C(=O)N[C@H](CCO)c4ccccn4)ccc3n(-c3ccc(C(F)(F)F)cc3)c2n1 (single isomer, unassigned) [Example C241] | > 3000 | 10 to 100 | 100 to 1000 | – | – |
| Cn1nc2c3cc(C(=O)N[C@@H](CCO)c4ccccn4)ccc3n(-c3ccc(C(F)(F)F)cc3)c2n1 (single isomer, unassigned) [Example C242] | > 3000 | 10 to 100 | 1 to 100 | – | – |
| COCCC(CO)NC(=O)c1ccc2c(c1)c1cn(C)nc1n2-c1ccc(C(F)(F)F)cc1 (single isomer, unassigned) [Example C245] | > 30000 | – | 1 to 100 | – | IC50 (YAP-TEAD interaction; [4]): 10 to 100 nM |
| Cn1nc2c3cc(C(=O)N=[S@@](=O)(CCCO)Cc4ccncc4)ccc3n(-c3ccc(C(F)(F)F)cc3)c2n1 (single isomer, unassigned) [Example C250] | > 3000 | – | 1 to 100 | > 300 | – |
| Cn1nnc2c3cc(C(=O)N=[S@](=O)(CCO)Cc4cccnc4)ccc3n(-c3ccc(C(F)(F)F)cc3)c21 (single isomer, unassigned) [Example C251] | > 3000 | 10 to 100 | 100 to 1000 | – | – |
| Cn1nc2c3cc(C(=O)N=[S@](=O)(CCCO)Cc4ccncc4)ccc3n(-c3ccc(C(F)(F)F)cc3)c2n1 (single isomer, unassigned) [Example C252] | – | – | 100 to 1000 | > 300 | IC50 (SW620 Yap KO cells; class symbols): 1000 to 10000 nM |
| Cn1cc2c3cc(C(=O)N=[S@](=O)(CCO)Cc4ccncc4)ccc3n(-c3ccc(C(F)(F)F)cc3)c2n1 (single isomer, unassigned) [Example C253] | – | – | 100 to 1000 | > 6500 | IC50 (SW620 Yap KO cells; class symbols): 1000 to 10000 nM |
| Cn1cc2c3cc(C(=O)N=[S@@](=O)(CCO)Cc4ccncc4)ccc3n(-c3ccc(C(F)(F)F)cc3)c2n1 (single isomer, unassigned) [Example C254] | – | – | 1 to 100 | > 300 | IC50 (SW620 Yap KO cells; class symbols): 1000 to 10000 nM |
| Cn1cnc2c1c1cc(C3CC(Oc4cncnc4)=NO3)ccc1n2-c1ccc(C(F)(F)F)cc1 (stereo not drawn) [Example 40, 5-[(5-{1-methyl-4-[4-(trifluoromethyl)phenyl]-1H,4H-imidazo[4,5-b]indol-7-yl}-4,5-dihydro-1,2-oxazol-3-yl)oxy]pyrimidine] | – | – | > 10000 | – | IC50 (SW620 Yap KO cells; class symbols): > 30000 nM; IC50 (YAP-TEAD interaction; [4]): 10 to 100 nM |
| Cn1cnc2c1c1cc(C(=O)N[C@](C)(CO)c3ccccn3)ccc1n2-c1ccc(C(F)(F)F)cc1 [Example C2, N-[(2S)-1-hydroxy-2-(pyridin-2-yl)propan-2-yl]-1-methyl-4-[4-(trifluoromethyl)phenyl]-1H,4H-imidazo [4,5-b]indole-7-carboxamide] | – | 10 to 100 | 1 to 100 | – | IC50 (SW620 Yap KO cells; [5]): > 30000 nM |
| Cn1nnc2c3cc(-c4noc(=O)[nH]4)ccc3n(-c3ccc(C(F)(F)F)cc3)c21 [Example C3, 3-{2-methyl-4-[4-(trifluoromethyl)phenyl]-3H,4H-[1,2,3]triazolo[4,5-b]indol-7-yl}-4,5-dihydro-1,2,4-oxadiazol-5-one] | – | 10 to 100 | 100 to 1000 | – | IC50 (SW620 Yap KO cells; [5]): > 30000 nM |
| Cn1cc2c3cc(NS(C)(=O)=O)ccc3n(-c3ccc(C(F)(F)F)cc3)c2n1 [Example C6, N-{2-methyl-8-[4-(trifluoromethyl)phenyl]-2H,8H-pyrazolo[3,4-b]indol-5-yl}methanesulfonamide] | – | 1 to 10 | 1 to 100 | – | IC50 (SW620 Yap KO cells; [5]): > 9500 nM |
| O=C(O)c1ccc2c(c1)c1cn(C3CCCCO3)nc1n2-c1ccc(C(F)(F)F)cc1 (stereo not drawn) [Example C10, 2-(oxan-2-yl)-8-[4-(trifluoromethyl)phenyl]-2H,8H-pyrazolo[3,4-b]indole-5-carboxylic acid] | – | 10 to 100 | 100 to 1000 | – | IC50 (SW620 Yap KO cells; [5]): > 30000 nM |
| Cn1cnc2c1c1cc(C(=O)N[C@@](C)(CO)c3ccccn3)ccc1n2-c1ccc(C(F)(F)F)cc1 [Example C12, N-[(2R)-1-hydroxy-2-(pyridin-2-yl)propan-2-yl]-1-methyl-4-[4-(trifluoromethyl)phenyl]-1H,4H-imidazo [4,5-b]indole-7-carboxamide] | – | 1 to 10 | 1 to 100 | – | IC50 (SW620 Yap KO cells; [5]): > 3000 nM |
